The values below are quoted from earlier work in US11896043B2, “Intestinal immune-enhancing agent, food product, and medicament” (DAICEL CORPORATION, priority 2017, dated 2024).

The subject of this series is IgA.

In the case of `OC[C@H]1O[C@@H](O[C@H]2[C@H](O)[C@@H](O)[C@@H](O[C@]3(CO)O[C@H](CO)[C@@H](O)[C@@H]3O)O[C@@H]2CO)[C@H](O)[C@@H](O)[C@H]1O` [lactosucrose, 4^G-β-D-galactosylsucrose], the “amounts of IgA in the feces and cecal contents” value (2% and 5% LS added feed for 4 weeks) was “significantly increased”. For the setting “after two weeks”, the “amount of IgA in the feces” value is on record as “decreased greatly”. Besides, the “amount of IgA in the feces relative to the control group” value (one week after ingestion) is on record as “about twice”.
